In ChEMBL document CHEMBL3045960 (Pest Manag Sci, 2011):
In brackets after ≈: the same amount, converted by molar mass.

Test system: Fusarium graminearum
Assay: Fungicidal activity against Fusarium graminearum 2021 assessed as mycelial growth inhibition after 3 days
Assay type: functional, organism-based
Conditions: Fusarium graminearum, 2021, 72 h

How did the EC50 turn out when CCCCNC(=O)n1c(NC(=O)OC)nc2ccccc21 [BENOMYL] was run?
The EC50 was 0.61 µg/mL (≈ 2.1 µM).

Which EC50 does the source give for COC(=O)NC(=S)Nc1ccccc1NC(=S)NC(=O)OC [THIOPHANATE METHYL] here?
Its EC50 is 11 µg/mL (≈ 32.2 µM).

With c1ccc2[nH]c(-c3cscn3)nc2c1 [THIABENDAZOLE] as the compound, how does the EC50 read?
Its EC50 is 1.13 µg/mL (≈ 5.61 µM).
